Experimental data: patent US20250276999A1, “PEPTIDES FOR PROMOTING HAIR FOLLICLE NEOGENESIS, AND PREVENTION/MITIGATION OF UNTOWARD EFFECTS OF RADIATION TREATMENT” (Trustees of Tufts College, priority 2022, published 2025)
Like-named read-outs stand apart in the source and are kept apart here.

How the values were obtained:
[1] = test system: X-ray irradiated and wounded mice; experiment: Combined injury murine model (thoracic X-ray irradiation plus wound); assay type: in vivo, C57BL/6 mice
Text: The C57BL/6 strain of mice has been utilized extensively for the study of radiation-induced skin injuries. We determined that 16 Gy is the minimal dosage for the induction of radiation burns in C57BL/6 mice that are not repaired within 45 days. Sham irradiated mice without wounds were used as controls for radiation dermatitis, and treated identically as irradiated mice. Wounded mice, without radiation, were used as controls for combined injury.
Animals were irradiated in the RS2000 small animal irradiator. The RS2000 provides a cone-shaped radiation field with irradiation at 12.39-40.50 cm from the X-ray source. For dose measurements, irradiation was performed with the following settings: 160 kVp, 25 mA, 90 s irradiation time and 0.3 mm Cu beam filtration. The approximate HVL provided by the manufacturer was 0.62 mm Cu. The University of Wisconsin Medical Radiation Research Center (UW MRRC) provided eight acrylic mouse phantoms with three (1×1×1 mm) Harshaw thermoluminenscence dosimeter (TLD)-100 microcubes (ThermoElectron Corp., Oakwood Village, OH) embedded in each phantom. The cylindrical phantom had dimensions of 27 mm in diameter (D)×65 mm in length (L) and was stabilized by a cylindrical insert 15 mm (D)×27 mm (L) with a 3 mm thick stand. A custom lead shield was placed on the floor of the irradiator, with the mouse thoracic region ˜43.75 cm from the X-ray source. Dose measurements were conducted twice to account for set-up error and reproducibility. TLDs were processed at UW MRRC using a national standard with an expanded uncertainty (k=2) of 5%. The dose rate was reported for each aperture position 1-4 as an absorbed dose rate to water (ADRW, Gy/min) and the two repeated measurements were averaged.
Mice (12-14 weeks of age) were anesthetized using inhaled anesthesia (isoflurane), and the fur was clipped on the dorsal side of the thoracic region. Two days after fur clipping, mice to be used for combined injury were given acetaminophen (150 mg/kg in 0.5 ml sterile saline) by gavage. Animals were then anesthetized with injected anesthesia (150 mg/kg ketamine/18 mg/kg xylazine) and placed in Lucite jigs for exposure to 16.5 Gy thoracic irradiation in the RS2000 X-ray irradiator as previously described. For combined injury, immediately following thoracic irradiation and while still under anesthesia, the area of the skin was scrubbed with betadine or chlorhexidine, followed by cleaning with an alcohol pad. A 9/16 inch diameter punch biopsy tool was used to create a 1 cm wound in the central dorsal thoracic region, roughly in the center of the field of radiation exposure. The panniculus carnosus muscle and overlying skin will be removed. The wound will be left open to air. The size of the wound approximates 15% of the total body skin surface.
TSN6 peptide (5 μg/day in 50 μl sterile saline) or hepatocyte growth factor (HGF; 3.3 μg/day in 50 μl sterile saline) or vehicle (sterile saline, 50 μl) were injected subcutaneously on days 2, 7 and 10 post-irradiation. Injections were made caudal, adjacent to the irradiated or irradiated/wounded area.
Animals were monitored daily for 85 days post-irradiation for both radiation dermatitis and combined injury models. Radiation dermatitis was separately scored for hair loss, erythema, scale, and ulceration. Scoring for erythema, scale and ulceration were previously described: 0=none; 1=minimal; 2=mild; 3=moderate; 4=marked. Because all animals underwent fur clipping prior to irradiation and wounding, scoring for hair loss was determined as failure to regrow hair in the irradiated areas: 0=none; 1=minimal; 2=mild; 3=moderate; 4=marked. Animals were photographed for the measurement of wounds and for dermatitis scoring. […] Weight was measured as an indication of overall health.

X-ray irradiated mice = experiment: Radiation dermatitis murine model (thoracic X-ray irradiation); assay type: in vivo, C57BL/6 mice
Experimental: Animals were irradiated in the RS2000 small animal irradiator. The RS2000 provides a cone-shaped radiation field with irradiation at 12.39-40.50 cm from the X-ray source. For dose measurements, irradiation was performed with the following settings: 160 kVp, 25 mA, 90 s irradiation time and 0.3 mm Cu beam filtration. The approximate HVL provided by the manufacturer was 0.62 mm Cu. […] A custom lead shield was placed on the floor of the irradiator, with the mouse thoracic region ˜43.75 cm from the X-ray source. Dose measurements were conducted twice to account for set-up error and reproducibility. […] The dose rate was reported for each aperture position 1-4 as an absorbed dose rate to water (ADRW, Gy/min) and the two repeated measurements were averaged.
Mice (12-14 weeks of age) were anesthetized using inhaled anesthesia (isoflurane), and the fur was clipped on the dorsal side of the thoracic region. […] Animals were then anesthetized with injected anesthesia (150 mg/kg ketamine/18 mg/kg xylazine) and placed in Lucite jigs for exposure to 16.5 Gy thoracic irradiation in the RS2000 X-ray irradiator as previously described [19].
Animals were monitored daily for 85 days post-irradiation for both radiation dermatitis and combined injury models. Radiation dermatitis was separately scored for hair loss, erythema, scale, and ulceration. Scoring for erythema, scale and ulceration were previously described: 0=none; 1=minimal; 2=mild; 3=moderate; 4=marked [19]. Because all animals underwent fur clipping prior to irradiation and wounding, scoring for hair loss was determined as failure to regrow hair in the irradiated areas: 0=none; 1=minimal; 2=mild; 3=moderate; 4=marked. Animals were photographed for the measurement of wounds and for dermatitis scoring. […] Weight was measured as an indication of overall health.

grafted DECs = experiment: Graft survival and size of TSN18-treated DECs grafted on nude mice; assay type: in vivo, Cr: NIH(S)-nu/nu mice
Experimental: Materials and Methods: Cultured dermal papilla (DP) cells, specialized skin fibroblasts isolated from the base of hair follicles, were treated with TSN18 for four days. Cell viability was measured using the CellTiter 96 Non-radioactive cell proliferation assay (MTT) kit. Alkaline phosphatase activity, a marker of trichogenicity was measured with the alkaline phosphatase yellow (pNPP) liquid substrate system for ELISA. A pilot study was performed to see whether incorporation of TSN18 active peptide in DECs improves graft survival or size. For the construction of DECs, human DP cells suspended in 1 mg/mL rat tail type I collagen were plated on inserts placed in six-well plates and incubated in media containing TSN18 active or scrambled peptide for 3 days. Subsequently, human neonatal foreskin keratinocytes were layered on top and the media changed to Epi medium containing TSN18 active or scrambled peptide for 2 days. […] The bandages were changed at two weeks and removed after four weeks and the grafts were monitored through 10 weeks. […] At the end of the experiment, the histological appearance of grafts was evaluated for the presence of a human stratified squamous epithelium and the presence or absence of human cells was assessed by staining for human leukocyte antigen. Graft sizes were measured by tracing the grafts and area determined using ImageJ (NIH) software.

dermal papilla cells = experiment: Alkaline phosphatase activity (marker of trichogenicity) in cultured cells; assay type: cell-based; settings: TSN18, treated for four days, in vitro
Experimental: Dermal papilla cells regulate hair follicle development and growth, unfortunately, maintaining dermal papilla cells inductive capacity is difficult in culture, as evident by their gradual loss of alkaline phosphatase activity in culture^3. To test if TSN peptides can increase alkaline phosphatase activity keratinocytes and dermal papilla cells were plated at 4000 and 2000 cells/well respectively in a 96 well plate with six replicates and cultured overnight. The media was changed and appropriate treatment-vehicle, scrambled peptide or active peptide—was added to the well. The media were changed with fresh media containing peptides 2 days after initial treatment, and the total culture period was 4 days, following which alkaline phosphatase activity was measured (FIG. 1). […]
Alkaline Phosphatase activity: Keratinocytes and dermal papilla cells were plated at 4000 and 2000 cells/well respectively in a 96 well plate with six replicates and cultured overnight. […] Alkaline phosphatase activity was measured according to manufacturer's instructions using Alkaline Phosphatase Yellow (pNPP) Liquid Substrate System for ELISA (Sigma Aldrich).
Materials and Methods: Cultured dermal papilla (DP) cells, specialized skin fibroblasts isolated from the base of hair follicles, were treated with TSN18 for four days. […] Graft sizes were measured by tracing the grafts and area determined using ImageJ (NIH) software.

[2] = test system: dermal papilla (DP) cells; experiment: Cell viability assay (MTT); assay type: cell-based; settings: treated for four days, in vitro
Experimental: Cell viability assay: Keratinocytes and dermal papilla cells were plated at 4000 and 2000 cells/well respectively in a 96 well plate with six replicates and cultured overnight. The media was changed and appropriate treatment-vehicle, scrambled peptide or active peptide—was added to the well. The media were changed with fresh media containing peptides 2 days after initial treatment, and the total culture period was 4 days. The cell viability was then measured using CellTiter […] Non-Radioactive Cell Proliferation Assay (MTT) (Promega Corporation). Briefly, 15 μL of dye solution was added to each well and incubated for 4 h at 37° C. and 5% CO2. Next 100 μL of stop solution was added to the mixture, incubated for an hour and absorbance was recorded at 570 nm using a plate reader.
Materials and Methods: Cultured dermal papilla (DP) cells, specialized skin fibroblasts isolated from the base of hair follicles, were treated with TSN18 for four days. Cell viability was measured using the CellTiter 96 Non-radioactive cell proliferation assay (MTT) kit. Alkaline phosphatase activity, a marker of trichogenicity was measured with the alkaline phosphatase yellow (pNPP) liquid substrate system for ELISA. […] The bandages were changed at two weeks and removed after four weeks and the grafts were monitored through 10 weeks. […]

[3] = test system: wound re-epithelization and closure; settings: in BALB/c mice, previous studies; cited from earlier work
[4] = test system: wound re-epithelization and closure; settings: in vitro, previous studies; cited from earlier work
mice with CI = experiment: Combined injury (CI) pilot study with active or scrambled peptide; assay type: in vivo, C57BL/6 mouse; settings: s.c. near wound on days 2, 7, 10 post-irradiation; 5 mice per group (FIG. 15)
Text: Mice were exposed to thoracic X-ray irradiation without excision wounding to induce CRI, and with an experimental excision wound within the irradiated region to induce CI. Animals were scored by researchers blinded to the treatment groups. Photographic documentation was made for each experiment. We evaluated the rate of wound healing from days 1-30 post-irradiation, and the severity of dermatitis was scored using four variable measures (erythema, scale, hair loss, and ulceration) in the mice from 14 days post-irradiation (dpi) until necropsy. Specific cellular and protein expression changes were determined using western blotting and immunohistochemistry (IHC). To evaluate the efficacy of bioactive peptides, mice with CI were treated with active peptides or scrambled peptides (negative control) by subcutaneous injection near the wound site on days 2, 7, and 10 post-irradiation. Additionally, vehicle control CI animals received saline (vehicle for the peptides) injections in the same volumes on the same days.

[5] = 16.5 Gy plus wound, s.c. days 2, 7, 10, TSN6 5 μg/day, HGF 3.3 μg/day
[6] = 16.5 Gy, s.c. days 2, 7, 10 post-irradiation, TSN6 5 μg/day, HGF 3.3 μg/day, vs vehicle

| Substance | ulceration score ([1]; 16.5 Gy plus wound, HGF 3.3 μg/day s.c. days 2, 7, 10) | characteristics of radiation dermatitis (hair loss, scale, erythema, ulceration) including combined score [1, 5] | rate of wound closure / wound repair [1, 5] | adipose layer in histological sections ([1]; combined injury, 83 days post-irradiation) | ulceration score (X-ray irradiated mice; 16.5 Gy, s.c. days 2, 7, 10 post-irradiation, HGF 3.3 μg/day, vs vehicle) | erythema score (X-ray irradiated mice; [6]) | hair loss score (X-ray irradiated mice; [6]) | radiation dermatitis (overall measures) (X-ray irradiated mice; [6]) | scale score (X-ray irradiated mice; [6]) | adipose layer in H&E histological sections (X-ray irradiated mice; skin 83 days post-irradiation, radiation alone) | average graft size (grafted DECs; at 10 weeks, peptide 10 μM, ImageJ) | mice that retained the graft until 10 weeks (grafted DECs; peptide 10 μM in DECs, n=5 per group) | alkaline phosphatase activity of DP cells (dermal papilla cells) | cell viability of DP cells [2] | wound re-epithelization and closure [3] | wound re-epithelization and closure [4] | decrease of severity of aggregate radiation dermatitis scores (mice with CI) |
| --- | --- | --- | --- | --- | --- | --- | --- | --- | --- | --- | --- | --- | --- | --- | --- | --- | --- |
| HGF: Hepatocyte growth factor, a pluripotent factor; a known adult tissue repair factor | somewhat exacerbate ulceration | did not improve any measure | did not accelerate wound repair | some improvement in the adipose layer in some animals | not markedly different | not markedly different | not markedly different | did not improve any measures | not markedly different | some improve preservation of the adipose layer | – | – | – | – | – | – | – |
| QPQPLPSPGVGGKN [TSN18, 14 aa combination of non-helical Collagen (VI) Alpha-3 chain regions] | – | – | – | – | – | – | – | – | – | – | 16.4±5.4 mm2 | four out of five | did not affect | did not affect | promoted wound re-epithelization and closure | promoted wound re-epithelization and closure | ~50% |
